Laboratory results reported in ChEMBL document CHEMBL4627407, “Identification of a Potent Oridonin Analogue for Treatment of Triple-Negative Breast Cancer” (J Med Chem, 2020).
pIC50: −log10 of the molar value. Calls of active or inactive are those of the source. The rule behind the calls is not given here.

Experiments:
[1] = system: HCC1806; experiment: Antimigratory activity in human HCC1806 cells assessed as reduction in integrin beta1 level after 48 hrs by Western blot analysis; format: functional, cell-based
[2] = system: T47D; experiment: Antiproliferative activity against human T47D cells after 72 hrs by MTT assay; format: functional, cell-based
[3] = system: SK-BR-3; experiment: Antiproliferative activity against human SK-BR-3 cells after 72 hrs by MTT assay; format: functional, cell-based; settings: SK-BR-3, 72 h
[4] = system: HCC1806; experiment: Antitumor activity against human HCC1806 cells harboring luciferase gene xenografted in ICR mouse assessed as shrunken tumor tissue at 12.5 to 25 mg/kg, iv administered once daily for 21 consecutive days and measured once every week; format: functional, organism-based
[5] = system: HCC1806; experiment: Induction of apoptosis in human HCC1806 cells after 48 hrs by Annexin V-FITC/propidium iodide double staining based flow cytometry; format: functional, cell-based
[6] = Toxicity in ICR mouse assessed as induction of morphological changes in heart at 25 mg/kg, iv administered once per day for 23 consecutive days; format: organism-based; settings: in vivo
[7] = system: MDA-MB-231; experiment: Antiproliferative activity against human MDA-MB-231 cells after 72 hrs by MTT assay; format: functional, cell-based; settings: MDA-MB-231, 72 h
[8] = system: HCC1806; experiment: Antitumor activity against human HCC1806 cells in ICR mouse assessed as increase in apoptosis in tumor at 12.5 to 25 mg/kg, iv administered once per day for 23 consecutive days by TUNEL based immunohistochemical analysis; format: functional, organism-based
[9] = system: HCC1806; experiment: Induction of intracellular reactive oxygen species generation in human HCC1806 cells at 200 nM incubated for 48 hrs in presence of ROS scavenger N-acetyl cysteine by DCFH2-DA staining based flow cytometeric analysis; format: functional, cell-based
[10] = system: DU-4475; experiment: Antiproliferative activity against human DU4475 cells after 72 hrs by MTT assay; format: functional, cell-based; settings: DU-4475, 72 h
[11] = system: HCC1806; experiment: Induction of cell cycle arrest in human HCC1806 cells assessed as increase in accumulation at G2/M phase after 48 hrs by propidium iodide staining based FACScan flow cytometry; format: functional
[12] = Inhibition of PI3K/Akt/mTOR signalling pathway in human HCC1806 cells assessed as reduction in phosphorylated PI3K expression at Y458 residue after 48 hrs by Western blot analysis; format: cell-based
[13] = system: HCC1806; experiment: Induction of apoptosis in human HCC1806 cells assessed as early apoptotic cells at 50 uM after 48 hrs by Annexin V-FITC/propidium iodide double staining based flow cytometry (reference value: 2.16%); format: functional
[14] = system: HCC1806; experiment: Induction of cell cycle arrest in human HCC1806 cells assessed as downregulation of cdc2 expression by western blot analysis; format: functional, cell-based
[15] = system: HCC1806; experiment: Inhibition of cell invasion in human HCC1806 cells at 100 to 200 nM incubated for 48 hrs by crystal violet staining based matrigel coated transwell assay; format: functional
[16] = system: HCC1806; experiment: Induction of cell cycle arrest in human HCC1806 cells assessed as accumulation at G1 phase at 100 nM after 48 hrs by propidium iodide staining based FACScan flow cytometry (reference value: 70.74%); format: functional
[17] = system: HCC1806; experiment: Induction of apoptosis in human HCC1806 cells assessed as viable cells at 50 uM after 48 hrs by Annexin V-FITC/propidium iodide double staining based flow cytometry (reference value: 95.7%); format: functional; settings: HCC1806, 48 h, read-out: Activity
[18] = system: HCC1806; experiment: Induction of apoptosis in human HCC1806 cells assessed as viable cells at 100 uM after 48 hrs by Annexin V-FITC/propidium iodide double staining based flow cytometry (reference value: 95.7%); format: functional; settings: HCC1806, 48 h, read-out: Activity
[19] = system: HCC1806; experiment: Induction of cell cycle arrest in human HCC1806 cells assessed as accumulation at G1 phase at 50 nM after 48 hrs by propidium iodide staining based FACScan flow cytometry (reference value: 70.74%); format: functional
[20] = system: HCC1806; experiment: Antitumor activity against human HCC1806 cells in ICR mouse assessed as increase in apoptosis in tumor at 12.5 to 25 mg/kg, iv administered once per day for 23 consecutive days by hematoxylin and eosin staining based histopathological assay; format: functional, organism-based
[21] = system: HCC1806; experiment: Antitumor activity against human HCC1806 cells in ICR mouse assessed as tumor shrinkage at 12.5 to 25 mg/kg, iv administered once per day for 23 consecutive days by Ki67 staining-based immunohistochemical analysis; format: functional, organism-based
[22] = Toxicity in ICR mouse assessed as reduction in body weight at 12.5 to 25 mg/kg, iv administered once per day for 23 consecutive days and measured every 2 days; format: organism-based; settings: in vivo, 48 h
[23] = molecular target: T1, M-phase inducer phosphatase 3 (Homo sapiens) (UniProt P30307); experiment: Inhibition of cdc25c in human HCC1806 cells assessed as increase in cdc25c phosphorylation at ser216 residue by western blot analysis; format: cell-based
T1 sequence (whole entry): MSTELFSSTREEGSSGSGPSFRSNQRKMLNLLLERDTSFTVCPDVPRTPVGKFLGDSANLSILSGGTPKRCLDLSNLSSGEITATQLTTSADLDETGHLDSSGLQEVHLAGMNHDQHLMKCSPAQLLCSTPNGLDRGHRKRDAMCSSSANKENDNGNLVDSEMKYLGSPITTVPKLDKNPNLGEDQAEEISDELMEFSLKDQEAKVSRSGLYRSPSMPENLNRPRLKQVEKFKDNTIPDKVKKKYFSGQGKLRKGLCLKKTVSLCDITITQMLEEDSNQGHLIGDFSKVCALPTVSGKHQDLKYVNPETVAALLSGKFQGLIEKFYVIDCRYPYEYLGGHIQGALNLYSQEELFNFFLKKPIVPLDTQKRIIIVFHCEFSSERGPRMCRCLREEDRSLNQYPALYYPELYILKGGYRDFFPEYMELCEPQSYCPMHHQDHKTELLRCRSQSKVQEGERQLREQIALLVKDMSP

[24] = system: HCC1806; experiment: Antitumor activity against human HCC1806 cells in ICR mouse assessed as reduction in tumor weight at 12.5 mg/kg, iv administered once per day for 23 consecutive days and measured every 2 days relative to control; format: functional; set-up: scale not given: the % may be the effect or the level left
[25] = Toxicity in ICR mouse assessed as induction of morphological changes in kidney at 25 mg/kg, iv administered once per day for 23 consecutive days; format: organism-based; settings: in vivo
[26] = system: HCC1806; experiment: Antitumor activity against human HCC1806 cells in ICR mouse assessed as increase in apoptosis in tumor at 12.5 to 25 mg/kg, iv administered once per day for 23 consecutive days by Ki67 staining-based immunohistochemical analysis; format: functional, organism-based
[27] = system: NCI/ADR-RES; experiment: Potency index, ratio of oridonin IC50 to compound IC50 for antiproliferative activity against human MCF7/ADR cells after 72 hrs by MTT assay; format: functional
[28] = system: HCC1806; experiment: Induction of apoptosis in human HCC1806 cells assessed as early apoptotic cells at 200 uM after 48 hrs by Annexin V-FITC/propidium iodide double staining based flow cytometry (reference value: 2.16%); format: functional
[29] = system: HCC1806; experiment: Induction of cell cycle arrest in human HCC1806 cells assessed as accumulation at G2/M phase at 50 nM after 48 hrs by propidium iodide staining based FACScan flow cytometry (reference value: 10.38%); format: functional
[30] = system: HCC1806; experiment: Induction of apoptosis in human HCC1806 cells assessed as increase in Bax expression at 50 to 200 nM after 48 hrs by Western blot analysis; format: functional, cell-based

For C=C1C(=O)[C@@]23C(=O)[C@@H]4OC[C@]5(C=CCC(C)(C)[C@@H]45)[C@@H]2CC[C@@H]1[C@H]3OC(=O)/C=C/c1ccncc1, the Activity [1] was “Dose-dependent effect”, the pIC50 [2] was 6.25 and the pIC50 [3] was 6.66. For the same compound, the Activity [4] was “Active”, the Activity [5] was “Dose-dependent effect” and the Activity [6] was “Non-Toxic”. For the same compound, the pIC50 [7] was 6.20, the Activity [8] was “Active” and the Activity [9] was “inactive”. For the same compound, the pIC50 [10] was 6.68, the Activity [11] was “Dose-dependent effect” and the inhibition [12] was “Dose-dependent effect”. For the same compound, the Activity [13] was 14.87%, the Activity [14] was “Dose-dependent effect” and the inhibition [15] was “Active”. The Activity [16] was 60.61%, the viability at 50 µM [17] was 82.2% and the viability at 100 µM [18] was 69%. For the same compound, the Activity [19] was 65.83%, the Activity [20] was “Active” and the Activity [21] was “Active”. The Activity [22] was “Non-Toxic”, the inhibition [23] was “Dose-dependent effect” and the Activity [24] was 67.3%. The Activity [25] was “Non-Toxic”, the Activity [26] was “Active” and the “Ratio IC50” value [27] was 20. For the same compound, the Activity [28] was 22.49%, the Activity [29] was 15.94% and the Activity [30] was “Active”.
